Data from patent US20240299554A1, “PRODRUGS WITH 1-(DISULFANYL)ALKYLOXY-CARBONYL UNITS” (PHARMACYTICS B.V., priority 2021, published 2024).

Columns and labels:
[1] = Oral bioavailability of conjugates in female Beagle dogs (AUC of parent drug); format: in vivo; settings: for Δ AUC (increase of AUC of parent drug derived from conjugate compared to parent drug as such): female Beagle dogs, single oral dose 7.5 or 15 μmol/kg by gavage, 24 h sampling, Table 1a; for generation of parent drug after oral administration: oral administration to beagle dogs
Protocol: Relative and absolute bioavailability may be determined in different animal models and according to different protocols. The following protocol is typical for determining bioavailability in female Beagle dogs and was used in the present invention. The animals were deprived from food over a time period of 8 h prior to administration of the compounds according to the present invention and over a time period of 2 h after administration of the compounds according to the present invention. Water was supplied without limitation. On the study day, the animals received the compounds according to the present invention, at a single dose of 7.5 or 15 μmol/kg, by oral gavage, formulated in mixtures of propylene glycol, ethanol and 0.9% NaCl+5% mannitol in water. Blood samples were collected from the jugular vein on the following time points: 0.25, 0.5, 1, 2, 4, 8 and 24 hours after dosing of the compounds according to the present invention. […] Pharmacokinetic parameters were calculated from concentration versus time data using non-compartmental pharmacokinetic methods using Phoenix pharmacokinetic software. Data are compared to the parent drugs to establish improvement of its oral bioavailability by the compounds according to the present invention.

[2] = In vitro treatment of conjugates with glutathione, release of parent drug followed by LC-MS at 254 nm; format: in vitro ADME; settings: for formation of parent drug on in vitro treatment with glutathione: glutathione 5 eq., phosphate buffer pH=7.6, 37° C. (for 102); for fate of glutathione adduct formed during glutathione treatment: adduct formed in situ from the conjugate
Text: (§1) FIGS. 1A and 1B are graphs showing the release of the drug Cinacalcet after an in vitro treatment of Cinacalcet conjugate 102 (not according to the invention) with glutathione. […] FIG. 1B represent the concentration of Cinacalcet conjugate 102 and Cinacalcet versus time. The presence of the compounds was followed at 254 nm by LC-MS.
as §1, with “3A” for “1A”, “3B” for “1B”, “60 (according” for “102 (not according”, “60” for “102”
The results are shown in FIGS. 1A and B. In FIG. 1A is shown the disappearance of conjugate 102 over time after treatment with glutathione, the formation of Cinacalcet and the appearance and partial disappearance of an intermediate (HS-Et-Cinacalcet) and a glutathione adduct (GSS—Et-Cinacalcet)—see below.

Structure (SMILES) | Δ AUC (increase of AUC of parent drug derived from conjugate compared to parent drug as such) [1] | generation of parent drug after oral administration [1] | formation of parent drug on in vitro treatment with glutathione [2] | other results
C[C@H](c1cccc2ccccc12)N(CCCc1cccc(C(F)(F)F)c1)C(=O)OCSSCCO[C@@H]1O[C@H](CO)[C@@H](O)[C@H](O)[C@H]1O [Compound 60] | ++ (++ denotes a 2 to 4-fold increase of the AUC compared to the parent drug) | readily resulted in the generation of significant amounts of cinacalcet | very fast and complete formation of Cinacalcet | 
CN(CC[C@@H](Oc1cccc2ccccc12)c1cccs1)C(=O)OCSSCCO[C@@H]1O[C@H](CO)[C@H](O)[C@H](O)[C@H]1O [Compound 61] | ++ (++ denotes a 2 to 4-fold increase of the AUC compared to the parent drug) | readily resulted in the generation of significant amounts of duloxetine | very fast and complete formation of Duloxetine | 
C[C@H](c1cccc2ccccc12)N(CCCc1cccc(C(F)(F)F)c1)C(=O)OCSSCCNC(=O)O[C@@H]1O[C@H](CO)[C@@H](O)[C@H](O)[C@H]1O [Compound 90] | + (+ denotes a 1.1 to 2-fold increase of the AUC compared to parent drug) |  |  | 
CCCN(COCCSSCOC(=O)N(CCCc1cccc(C(F)(F)F)c1)[C@H](C)c1cccc2ccccc12)C(=O)O[C@@H]1O[C@H](CO)[C@@H](O)[C@H](O)[C@H]1O [Compound 92a] | +++ (+++ denotes a >4-fold increase of the AUC compared to the parent drug) |  |  | 
CCCN(COCCSSCOC(=O)N(CCCc1cccc(C(F)(F)F)c1)[C@H](C)c1cccc2ccccc12)C(=O)O[C@@H]1O[C@H](CF)[C@@H](O)[C@H](O)[C@H]1O [Compound 92b] | +++ (+++ denotes a >4-fold increase of the AUC compared to the parent drug) |  |  | 
CCCN(COCCSSCOC(=O)N(CCCc1cccc(C(F)(F)F)c1)[C@H](C)c1cccc2ccccc12)C(=O)O[C@@H]1O[C@H](CO)[C@H](O)[C@H](O)[C@H]1O [Compound 93a] | +++ (+++ denotes a >4-fold increase of the AUC compared to the parent drug) |  |  | 
C[C@H](c1cccc2ccccc12)N(CCCc1cccc(C(F)(F)F)c1)C(=O)OCCSSCCO[C@@H]1O[C@H](CO)[C@@H](O)[C@H](O)[C@H]1O [Compound 102] |  | did not produce any detectable amount of the drug Cinacalcet | very slow and incomplete formation of Cinacalcet | conversion of pro-drug into parent drug within 8 hours ([2]; glutathione treatment): far from being completely converted into Cinacalcet; conversion of pro-drug into parent drug in 23 hours ([2]; glutathione treatment, 23 hours): less than half
CN(CC[C@@H](Oc1cccc2ccccc12)c1cccs1)C(=O)OCCSSCCO[C@@H]1O[C@H](CO)[C@@H](O)[C@H](O)[C@H]1O [Compound 103] |  | did not produce any detectable amount of Duloxetine | very slow and incomplete formation of duloxetine | conversion of pro-drug into parent drug within 8 hours ([2]; glutathione treatment): less than half
C[C@H](c1cccc2ccccc12)N(CCCc1cccc(C(F)(F)F)c1)C(=O)OCCSSC[C@H](NC(=O)CC[C@H](N)C(=O)O)C(=O)NCC(=O)O [GSS-Et-Cinacalcet] |  |  |  | fate of glutathione adduct formed during glutathione treatment [2]: somewhat more stable than the mercaptoethyl carbamate
C[C@H](c1cccc2ccccc12)N(CCCc1cccc(C(F)(F)F)c1)C(=O)OCSSC[C@H](NC(=O)CC[C@H](N)C(=O)O)C(=O)NCC(=O)O [GSS-Me-Cinacalcet] |  |  |  | fate of glutathione adduct formed during glutathione treatment [2]: completely converted into Cinacalcet within one hour
CN(CC[C@H](Oc1cccc2ccccc12)c1cccs1)C(=O)OCSSC[C@H](NC(=O)CC[C@H](N)C(=O)O)C(=O)NCC(=O)O [GSS-Me-Duloxetine] |  |  |  | fate of glutathione adduct formed during glutathione treatment [2]: completely converted into Duloxetine within one hour
